{"source": "patent US5990346A", "about": "“Prostaglandins and processes for production thereof” (Teijin Limited, priority 1995, dated 1999)", "key": {"[1]": {"system": "THP-1 cells (cell migration caused by MCP-1)", "test": "Inhibitory activity of cell migration caused by MCP-1 (microchemotaxis chamber)", "format": "cell-based", "details": "recombinant human MCP-1 20 ng/ml, 37° C.", "protocol": "Measurement of Inhibitory Activity of Cell Migration Caused by MCP-1\nTo evaluate the activity of the test compounds listed in the following table in inhibiting cell migration, the cell migration caused by the monocyte chemotactic protein MCP-1/MCAF was measured using human premonocyte-derived leukemia cells THP-1 (ATCCTIB203) as migrating cells and the method of FALK et al. (J. Immunol. Methods, vol. 33, pp. 239 to 247 (1980)) as follows. That is, to the upper chamber (200 μl) of a 96-well microchemotaxis chamber (made by Neuroprobe Co.) was added 2×10^6 /ml THP-1 cells (10% fetal calf serum (FCS) containing RPMI-1640 medium (made by Flow Laboratories Co.), while to the lower chamber (35 μl) was placed recombinant human MCP-1 (made by Peprotech Co.) diluted by the same solution to give a final concentration of 20 ng/ml. Between the two chambers, a polycarbonate filter (pore size 5 μm, PVP-free, made by Neuroprobe Co.) was affixed. Incubation was performed at 37° C. in the presence of 5% CO2 for 2 hours. The filter was taken out and the cells migrating to the lower surface of the filter were immobilized and stained by a DiffQuick solution (made by Kokusai Shiyaku Co.) Next, a Breedmeter (made by Molecular Device Co.) was used for measurement at a measurement wavelength of 550 nm and the mean value of three wells was found and used as an indicator of the number of migrating cells. At this time, the test compound was added to the upper chamber together with THP-1 cells in various concentrations to find the cell migration inhibitory activity. The cell migration inhibition % was found by dividing the (number of migrating cells caused by MCP-1 added to the lower chamber in the case of addition of the test compound to the upper chamber)-(number of migrating cells in the case of no test compound added to the upper chamber and no MCP-1 added to the lower chamber) by (number of migrating cells caused by MCP-1 added to the lower chamber in the case of no test compound added to the upper chamber)-(number of migrating cells in the case of no test compound added to the upper chamber and no MCP-1 added to the lower chamber)."}, "[2]": {"system": "vascular smooth muscle cells (cell migration caused by PDGF)", "test": "Inhibitory activity of cell migration caused by PDGF (Transwell chamber)", "format": "cell-based", "details": "human PDGF 10 ng/ml, 37° C., 6 hours", "protocol": "Measurement of Inhibitory Activity of Cell Migration Caused by PDGF\nTo evaluate the activity of the test compounds listed in the following table to inhibit cell migration caused by PDGF, the migrating cells caused by human platelet derived growth factor (PDGF) were measured in the following way using the vascular smooth muscle cells derived from normal human arteries (made by Kurabo) and according to the method of MaCarthy et al. (J. Cell. Biol. 97, 772-777 (1983)). That is, a Transwell Chamber (Costar Co., registered trademark) was used to measure the inhibitory action. The chamber was divided into two layers, upper and lower, by a 8 μm pore size membrane filter (PVP-free polycarbonate filter, Nucleopore Co., registered trademark). […] The cells on the upper surface of the filter were removed by wiping with a cotton swab and the cells that had migrated to the lower surface of the filter were counted under a high output microscope (×200). Usually, five fields were counted per filter. […]"}, "[3]": {"system": "thickening of intima of carotid artery of rat", "test": "Thickening of intima of carotid artery of rat due to balloon catheter", "format": "in vivo, Male Wistar rats", "details": "3.2 μg/rat/hr subcutaneously", "protocol": "Thickening of Intima of Carotid Artery of Rat Due to Balloon Catheter\nThe test was performed in the following manner in accordance with the method of Crose et al. (Lab. Invest., vol. 49, p. 206, 1983). Male Wistar rats having a body weight of 300 to 350 g were used. The neck of each rat was opened under anesthesia by sodium pentobarbitol, then a balloon catheter (Fogarty, 2F) was inserted from the right external carotid artery, until the starting portion of the common carotid artery. The balloon was expanded by physiological saline to such an extent causing a light resistance, then the catheter was pulled out in that state up to the carotid artery to give trauma to the intima. This procedure was repeated three times, then the catheter was withdrawn and the external carotid artery was sewn up. After 14 days, the chest was opened under anesthesia by diethyl ether, refluxing was performed from the aorta by a Carnoa solution (methanol:chloroform:acetic acid=6:3:1), then the right common carotid artery was excised and immobilized by neutral formalin solution. The immobilized carotid artery was dyed by Elasticavan Gieson dye, then the areas of the Media and thickened portion of the Intima were measured by an image resolution device (LUZEX2D). […]"}, "[4]": {"system": "platelets (platelet aggregation)", "test": "Inhibitory activity of platelet aggregation in rats", "format": "cell-based, Wistar rats (male)", "details": "rat platelet rich plasma; 100 μM adenosine 2-phosphoric acid (5 μl) induced; 37° C.; read-out: Activity Suppressing Platelet Aggregation (Rats) IC50", "protocol": "Measurement of Inhibitory Activity of Platelet Aggregation in Rats\nWistar rats (male, approximately 400 g) were made to fast for 1 day, then the entire blood was taken from the abdominal artery under anesthesia by ether. To this was added a 3.8% aqueous solution of sodium citrate in a 1/10 amount followed by immediate mixture. This was centrifuged at 1000 rpm for 10 minutes. The top layer was used as the platelet rich plasma. The bottom layer was centrifuged at 3000 rpm for 10 minutes and the top layer was used as the platelet poor plasma. The platelet rich plasma was diluted by the platelet poor plasma to give a platelet count of […]. This was used for the measurement. Note that the platelets were measured using an automatic blood cell counter MEK-4500 (Nihon Koden). The platelet aggregation was measured by measuring the turbidity using an NBS HEMATRACER 801 (M. C. Medical). 90 μl of the platelets were placed in cuvettes, then 5 μl of the different test compounds were added to give the target final concentration, then these were heated for 1 minute at 37° C., then 5 μl of an aqueous solution of 100 μM adenosine 2-phosphoric acid (M. C. Medical) was added to cause platelet aggregation. The activity inhibiting aggregation was found from the following formula: […]\nAggregation inhibiting rate (%)\n={1-(maximum change in turbidity at time of addition of test compound)\n.div.(maximum change in turbidity at time of no addition of test compound)}"}}, "data": [{"smiles": "CCCC[C@@H](C)C[C@H](O)/C=C/[C@@H]1C(SCCCCCC(=O)O)=C(C)C[C@H]1O", "values": [{"measurement": "IC50", "setting": "[1]; Homo sapiens, THP-1, 2 h", "result": 72, "unit": "nM"}]}, {"smiles": "CCCCCC1=C(SCCCCCC(=O)OC)[C@@H](/C=C/[C@@H](O)C[C@H](C)CCCC)[C@H](O)C1", "values": [{"measurement": "IC50", "setting": "[1]; Homo sapiens, THP-1, 2 h", "result": 450, "unit": "nM"}]}, {"smiles": "CCCC[C@@H](C)C[C@H](O)/C=C/[C@@H]1C(SCCCCCC(=O)OC)=C(CCC(C)(C)C)C[C@H]1O", "values": [{"measurement": "IC50", "setting": "[1]; Homo sapiens, THP-1, 2 h", "result": 600, "unit": "nM"}]}, {"smiles": "CCCC[C@@H](C)C[C@H](O)/C=C/[C@@H]1C(SCCCCCC(=O)OC)=C(C(F)(F)F)C[C@H]1O", "values": [{"measurement": "IC50", "setting": "[1]; Homo sapiens, THP-1, 2 h", "result": 2500, "unit": "nM"}]}, {"smiles": "CCCC[C@@H](C)C[C@H](O)/C=C/[C@@H]1C(SCCCCCC(=O)OC)=C(C=O)C[C@H]1O", "values": [{"measurement": "IC50", "setting": "[1]; Homo sapiens, THP-1, 2 h", "result": 190, "unit": "nM"}]}, {"smiles": "CCCC[C@@H](C)C[C@H](O)/C=C/[C@@H]1C(SCCCCCC(=O)OC)=C(C(=O)OC)C[C@H]1O", "values": [{"measurement": "IC50", "setting": "[1]; Homo sapiens, THP-1, 2 h", "result": 470, "unit": "nM"}]}, {"smiles": "CCCC[C@@H](C)C[C@H](O)/C=C/[C@@H]1C(SCCCCCC(=O)OC)=C(C(C)=O)C[C@H]1O", "values": [{"measurement": "IC50", "setting": "[1]; Homo sapiens, THP-1, 2 h", "result": 210, "unit": "nM"}]}, {"smiles": "COC(=O)CCCCCSC1=CC[C@@H](O)[C@@H]1/C=C/[C@@H](O)Cc1ccccc1", "values": [{"measurement": "IC50", "setting": "[1]; Homo sapiens, THP-1, 2 h", "result": 380, "unit": "nM"}]}, {"smiles": "COC(=O)CCCCCSC1=C(C)C[C@@H](O)[C@@H]1CCC(O)Cc1ccccc1", "note": "(some centres unmarked)", "values": [{"measurement": "IC50", "setting": "[1]; Homo sapiens, THP-1, 2 h", "result": 120, "unit": "nM"}]}, {"smiles": "COC(=O)CCCCCSC1=C(C2CC2)C[C@@H](O)[C@@H]1/C=C/C(O)Cc1ccccc1", "note": "(single isomer, unassigned)", "values": [{"measurement": "IC50", "setting": "[1]; Homo sapiens, THP-1, 2 h", "result": 200, "unit": "nM"}]}, {"smiles": "COC(=O)CCCCCSC1=C(C)CCC1/C=C/[C@@H](O)Cc1ccccc1", "note": "(single isomer, unassigned)", "values": [{"measurement": "IC50", "setting": "[1]; Homo sapiens, THP-1, 2 h", "result": 15, "unit": "nM"}]}, {"smiles": "COC(=O)CCCCCCC1=C(C)C[C@@H](O)[C@@H]1/C=C/C(O)Cc1ccccc1", "note": "(single isomer, unassigned)", "values": [{"measurement": "IC50", "setting": "[1]; Homo sapiens, THP-1, 2 h", "result": 65, "unit": "nM"}]}, {"smiles": "COC(=O)COCCCSC1=C(C)C[C@@H](O)[C@@H]1/C=C/C(O)Cc1ccccc1", "note": "(single isomer, unassigned)", "values": [{"measurement": "IC50", "setting": "[1]; Homo sapiens, THP-1, 2 h", "result": 360, "unit": "nM"}]}, {"smiles": "CC1=C(SCCCCCC(=O)O)[C@@H](/C=C/C(O)Cc2ccccc2)[C@H](O)C1", "note": "(single isomer, unassigned) [Example 34]", "values": [{"measurement": "IC50", "setting": "[2]", "result": 73, "unit": "nM"}, {"measurement": "IC50", "setting": "[1]; Homo sapiens, THP-1, 2 h", "result": 16, "unit": "nM"}]}, {"smiles": "COC(=O)CCCCCSC1=C(C)C[C@@H](O)[C@@H]1/C=C/C(O)Cc1ccccc1", "note": "(single isomer, unassigned) [drawing 92]", "values": [{"measurement": "IC50", "setting": "[1]; 2 hours", "result": 210, "unit": "nM"}]}, {"smiles": "COC(=O)CCCCCSC1=C(C)C[C@@H](O)[C@@H]1/C=C/C(O)Cc1ccccc1", "note": "(single isomer, unassigned) [drawing 93]", "values": [{"measurement": "IC50", "setting": "[1]; 2 hours", "result": 10, "unit": "nM"}]}, {"smiles": "COC(=O)CCCCCSC1=C(C)C[C@@H](O)[C@@H]1/C=C/C(O)Cc1ccccc1", "note": "(single isomer, unassigned) [drawing 100]", "values": [{"measurement": "IC50", "setting": "[2]", "result": 81, "unit": "nM"}]}, {"smiles": "CCCC[C@@H](C)C[C@H](O)/C=C/[C@@H]1C(SCCCCCC(=O)OC)=CC[C@H]1O", "note": "[Example 28, methyl (11R,12S,13E,15S,17R)-11,15-dihydroxy-17,20-dimethyl-7-thiaprosta-8,13-dienoate]", "values": [{"measurement": "Intima/media (Average ± standard error)", "setting": "[3]; 3 days before to 11 days after surgery, measured after 14 days, control 0.935 ± 0.377", "result": "0.702 ± 0.241"}, {"measurement": "Suppression Rate (intima thickening suppression rate)", "setting": "[3]; (1-T/C)×100, vs control group", "result": 25, "unit": "%"}]}, {"smiles": "CCCC[C@@H](C)C[C@H](O)/C=C/[C@@H]1C(SCCCCCC(=O)OC)=C(C)C[C@H]1O", "note": "[drawing 82]", "values": [{"measurement": "IC50", "setting": "[1]; Homo sapiens, THP-1, 2 h", "result": 26, "unit": "nM"}]}, {"smiles": "CCCC[C@@H](C)C[C@H](O)/C=C/[C@@H]1C(SCCCCCC(=O)OC)=CC[C@H]1O", "note": "[drawing 89]", "values": [{"measurement": "IC50", "setting": "[1]; Homo sapiens, THP-1, 2 h", "result": 13, "unit": "nM"}]}, {"smiles": "CCCC[C@@H](C)C[C@H](O)/C=C/[C@@H]1C(SCCCCCC(=O)O)=CC[C@H]1O", "note": "[drawing 90]", "values": [{"measurement": "IC50", "setting": "[1]; Homo sapiens, THP-1, 2 h", "result": 150, "unit": "nM"}]}, {"smiles": "CCCC[C@@H](C)C[C@H](O)/C=C/[C@@H]1C(SCCCCCC(=O)OC)=C(C)C[C@H]1O", "note": "[drawing 103]", "values": [{"measurement": "IC50", "setting": "[4]", "result": 4500, "unit": "nM"}]}, {"smiles": "CCCC[C@@H](C)C[C@H](O)/C=C/[C@@H]1C(SCCCCCC(=O)OC)=CC[C@H]1O", "note": "[drawing 104]", "values": [{"measurement": "IC50", "setting": "[4]", "result": 760, "unit": "nM"}]}, {"smiles": "CCCC[C@@H](C)C[C@H](O)/C=C/[C@@H]1C(SCCCCCC(=O)O)=CC[C@H]1O", "note": "[drawing 105]", "values": [{"measurement": "IC50", "setting": "[4]", "result": 2200, "unit": "nM"}]}]}
